Test results taken from PMC11938010, “Positive Charge in an Antimalarial Compound Unlocks Broad-Spectrum Antibacterial Activity” (JACS Au, 2025).
Values after ≈ are worked out from the molar mass of the structure shown. Where two headings read alike, the source gives them in different places.

What was measured:
[1] = system: Staphylococcus aureus ssp. Aureus; assay: In vitro antibacterial activity (MIC), S. aureus; assay type: cell-based; conditions: Staphylococcus aureus, read-out: Sa MIC95
[2] = system: Plasmodium falciparum NF54; assay: P. falciparum in vitro drug sensitivity assay on asexual blood stage parasites ([3H]-hypoxanthine incorporation); assay type: cell-based; conditions: read-out: PfNF54 IC50
Escherichia coli ∆tolC = assay: microbe, parasite or virus in culture; assay type: cell-based; conditions: Escherichia coli; for inhibition at 50 µM: read-out: Ec∆tolC inh. at 50 µM (%)
[3] = system: Mycobacterium tuberculosis (Mtb) strain H37Rv; assay: microbe, parasite or virus in culture; assay type: cell-based; conditions: 168 h, 7 days, footnote b: not active at maximum solubility, read-out: MtbH37Rv MIC90
Acinetobacter baumannii = assay: In vitro antibacterial activity (growth inhibition, OD600), A. baumannii; assay type: cell-based; conditions: for MIC: read-out: Ab MIC95
[4] = system: Streptococcus pneumoniae (DSM20566); assay: In vitro antibacterial activity (MIC), S. pneumoniae; assay type: cell-based; conditions: Streptococcus pneumoniae, DSM20566, read-out: Sp MIC95
E. coli K12 = assay: In vitro antibacterial activity (growth inhibition, OD600), E. coli wild-type; assay type: cell-based; conditions: Escherichia coli
in vitro = conditions: human, HepG2 CC50, 48 h, MTT
[5] = system: Pseudomonas aeruginosa PA14; assay: In vitro antibacterial activity (growth inhibition, OD600), P. aeruginosa; assay type: cell-based; conditions: PA14, 50 μM compound, Table 1 and main text, read-out: PA14 inh. at 50 μM
Solubility in 7H9 medium = assay type: physicochemical; conditions: M. tuberculosis growth medium (7H9)
[6] = Table S2, with standard deviation
[7] = Plasmodium falciparum, NF54, Table 1 and main text
[8] = 50 μM compound, Table 1 and main text, read-out: Ab inh. at 50 μM
[9] = K12, 50 μM compound, Table 1 and main text, read-out: EcK12 inh. at 50 μM

Compound	MIC ([1]; Table 1 and main text) [µM]	MIC [1, 6] [µM]	IC50 [2, 7] [nM]	MIC (Escherichia coli ∆tolC; read-out: EcΔtolC MIC95) [µM]	MIC (Escherichia coli ∆tolC; read-out: Ec∆tolC MIC95 (µM)) [µM]	MIC90 [3] [µM]	inhibition at 50 µM (Acinetobacter baumannii; [8]) [%]	MIC ([4]; Table 1 and main text) [µM]	MIC [4, 6] [µM]	inhibition at 50 µM (E. coli K12; [9]) [%]	CC50 (in vitro) [nM]	inhibition at 50 µM [5] [%]	inhibition at 50 µM (Escherichia coli ∆tolC) [%]	inhibition at 50 µM (Acinetobacter baumannii; 50 µM, Table S1, with standard deviation, read-out: Ab inh. at 50 µM (%)) [%]	7h9 media Sol. (Solubility in 7H9 medium) [µM]	MIC (E. coli K12; K12, Table S1, printed inside the inhibition column, with standard deviation, unit from Table 1 footnote, read-out: EcK12 MIC95) [µM]	IC50 ([2]; Table 1 and main text) [nM]	MIC (Acinetobacter baumannii; Table S1, printed inside the inhibition column, with standard deviation, unit from Table 1 footnote) [µM]	MIC (Acinetobacter baumannii; printed inside the Ab inhibition column, Table 1 and main text) [µM]	inhibition at 50 µM (E. coli K12; K12, 50 µM, Table S1, with standard deviation, read-out: EcK12 inh. at 50 µM (%)) [%]
N=C(N)NCc1ccc(NC(=O)c2cc(-c3cc(Cl)ccc3O)[nH]n2)cc1 [Compound 8G, 5-(5-Chloro-2-hydroxyphenyl)-N-(4-(guanidinomethyl)phenyl)-1H-pyrazole-3-carboxamide]	22 (≈ 8.47 µg/mL)	22 ± 1 (≈ 8.47 µg/mL)	420	47.5 (≈ 18.3 µg/mL)	47.5 (≈ 18.3 µg/mL)	> 64	19.9	> 50	> 50	29	> 50000	41	–	–	–	–	–	–	–	–
CC(C)(C)OC(=O)N1CCN(c2cc(NC(=O)c3cc(-c4cc(Cl)ccc4O)[nH]n3)cc(C(F)(F)F)c2)CC1 [Compound 11B]	> 50	> 50	130	> 50	–	–	–	> 50	> 50	–	4000	–	18 ± 4	< 10	< 8	–	–	–	–	–
N=C(N)NCc1cc(NC(=O)c2cc(-c3cc(Cl)ccc3O)[nH]n2)cc(C(F)(F)F)c1 [Compound 9G]	8 (≈ 3.62 µg/mL)	8 ± 3 (≈ 3.62 µg/mL)	78	5 (≈ 2.26 µg/mL)	5 ± 2 (≈ 2.26 µg/mL)	32 (≈ 14.5 µg/mL)	59	> 50	> 50	–	> 50000	50	–	–	–	46 ± 2 (≈ 20.8 µg/mL)	–	–	–	–
O=C(Nc1cccc([N+](=O)[O-])c1)c1cc(-c2cc(Cl)ccc2O)[nH]n1 [Compound 1c]	> 50	> 50	510	> 50	–	> 32	–	> 50	> 50	–	–	–	–	–	32	–	–	–	–	–
O=C(Nc1cccc(CN2CCOCC2)c1)c1cc(-c2cc(Cl)ccc2O)[nH]n1 [Compound 2]	> 50	> 50	1100	> 50	–	> 16	–	> 50	> 50	–	~50000	–	24 ± 12	–	16	–	–	–	–	–
CC(C)(C)OC(=O)N1CCN=C1NCc1ccc(NC(=O)c2cc(-c3cc(Cl)ccc3O)[nH]n2)cc1C(F)(F)F [Compound 10D, tert-Butyl 2-((4-(5-(5-chloro-2-hydroxyphenyl)-1H-pyrazole-3-carboxamido)-2-(trifluoromethyl)benzyl)amino)-4,5-dihydro-1H-imidazole-1-carboxylate]	11.6 (≈ 6.72 µg/mL)	11.6 ± 0.2 (≈ 6.72 µg/mL)	140	18 (≈ 10.4 µg/mL)	18 ± 6 (≈ 10.4 µg/mL)	16 (≈ 9.26 µg/mL)	< 10	> 50	> 50	17	11000	< 10	–	–	–	–	–	–	–	–
CC(C)(C)OC(=O)NCc1ccc(NC(=O)c2cc(-c3cc(Cl)ccc3O)[nH]n2)cc1 [Compound 8B]	> 50	> 50	1700	> 50	–	–	–	> 50	> 50	–	> 50000	–	< 10	–	< 8	–	–	–	–	–
O=C(Nc1cc(N2CCNCC2)cc(C(F)(F)F)c1)c1cc(-c2cc(Cl)ccc2O)[nH]n1 [Compound 11A]	6 (≈ 2.8 µg/mL)	6 ± 2 (≈ 2.8 µg/mL)	≤ 60	7 (≈ 3.26 µg/mL)	7 ± 2 (≈ 3.26 µg/mL)	32 (≈ 14.9 µg/mL)	–	5 (≈ 2.33 µg/mL)	5 ± 1 (≈ 2.33 µg/mL)	72	9000	< 10	–	–	–	–	50	22 ± 3 (≈ 10.2 µg/mL)	22 (≈ 10.2 µg/mL)	–
O=C(Nc1cccc(CNC2=NCCN2)c1)c1cc(-c2cc(Cl)ccc2O)[nH]n1 [Compound 7C]	22.3 (≈ 9.16 µg/mL)	22.3 ± 0.6 (≈ 9.16 µg/mL)	390	13 (≈ 5.34 µg/mL)	13 ± 3 (≈ 5.34 µg/mL)	32 (≈ 13.1 µg/mL)	33	48.2 (≈ 19.8 µg/mL)	48.2 ± 0.8 (≈ 19.8 µg/mL)	29	> 50000	41	–	–	–	–	–	–	–	29.4 ± 0.6
